The source made the active and inactive calls. The calls are words filed in the database; no cut-off is given here.
Experiments:
[1] = target: T1, Signal transducer and activator of transcription 1-alpha/beta (Homo sapiens) (UniProt P42224); assay: Inhibition of STAT1 in human MDA-MB-231 cells assessed as decrease in STAT1 phosphorylation at Y701 residue at 4 uM incubated for 24 hrs by Western blot analysis; type: cell-based
T1 sequence (whole entry): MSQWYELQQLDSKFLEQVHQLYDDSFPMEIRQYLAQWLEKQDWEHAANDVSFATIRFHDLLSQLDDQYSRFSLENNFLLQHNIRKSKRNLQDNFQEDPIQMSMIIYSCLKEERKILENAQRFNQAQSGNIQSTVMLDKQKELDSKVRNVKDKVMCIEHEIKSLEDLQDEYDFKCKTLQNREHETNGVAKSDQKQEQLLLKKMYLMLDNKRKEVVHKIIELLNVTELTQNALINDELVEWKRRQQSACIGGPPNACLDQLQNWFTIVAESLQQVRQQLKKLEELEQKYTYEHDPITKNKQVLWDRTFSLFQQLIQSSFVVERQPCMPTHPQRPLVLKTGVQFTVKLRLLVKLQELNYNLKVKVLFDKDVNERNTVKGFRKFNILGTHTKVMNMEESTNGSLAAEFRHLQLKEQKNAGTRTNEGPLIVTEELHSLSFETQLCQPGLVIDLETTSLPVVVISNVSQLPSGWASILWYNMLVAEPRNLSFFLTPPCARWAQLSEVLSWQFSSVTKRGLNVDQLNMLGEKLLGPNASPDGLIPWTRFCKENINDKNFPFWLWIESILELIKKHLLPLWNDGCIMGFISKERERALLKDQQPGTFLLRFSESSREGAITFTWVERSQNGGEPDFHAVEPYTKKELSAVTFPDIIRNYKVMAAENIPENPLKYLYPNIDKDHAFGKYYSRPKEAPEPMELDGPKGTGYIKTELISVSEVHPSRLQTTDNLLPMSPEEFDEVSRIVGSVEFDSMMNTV

[2] = Selectivity index, ratio of IC50 for human MCF10A cells to IC50 for human MDA-MB-231 cells; type: toxicity; conditions: MCF10A cells versus MDA-MB-231 cells, read-out: Ratio IC50
MDA-MB-231 [3] = assay: Induction of apoptosis in human MDA-MB-231 cells assessed as increase in cleaved PARP levels at 4 uM incubated for 24 hrs by Western blot analysis; type: functional, cell-based
HCT-116 = assay: Antiproliferative activity against human HCT116 cells assessed as reduction in cell viability incubated for 48 hrs by MTT assay; type: functional, cell-based; conditions: HCT-116, 48 h
[4] = target: Signal transducer and activator of transcription 3 (Homo sapiens) (UniProt P40763); assay: Inhibition of STAT3 in human MDA-MB-231 cells assessed as decrease in STAT3 phosphorylation at Tyr705 residue at 4 uM incubated for 24 hrs by Western blot analysis; type: cell-based
Sequence of Signal transducer and activator of transcription 3 (Homo sapiens) (P40763 whole entry): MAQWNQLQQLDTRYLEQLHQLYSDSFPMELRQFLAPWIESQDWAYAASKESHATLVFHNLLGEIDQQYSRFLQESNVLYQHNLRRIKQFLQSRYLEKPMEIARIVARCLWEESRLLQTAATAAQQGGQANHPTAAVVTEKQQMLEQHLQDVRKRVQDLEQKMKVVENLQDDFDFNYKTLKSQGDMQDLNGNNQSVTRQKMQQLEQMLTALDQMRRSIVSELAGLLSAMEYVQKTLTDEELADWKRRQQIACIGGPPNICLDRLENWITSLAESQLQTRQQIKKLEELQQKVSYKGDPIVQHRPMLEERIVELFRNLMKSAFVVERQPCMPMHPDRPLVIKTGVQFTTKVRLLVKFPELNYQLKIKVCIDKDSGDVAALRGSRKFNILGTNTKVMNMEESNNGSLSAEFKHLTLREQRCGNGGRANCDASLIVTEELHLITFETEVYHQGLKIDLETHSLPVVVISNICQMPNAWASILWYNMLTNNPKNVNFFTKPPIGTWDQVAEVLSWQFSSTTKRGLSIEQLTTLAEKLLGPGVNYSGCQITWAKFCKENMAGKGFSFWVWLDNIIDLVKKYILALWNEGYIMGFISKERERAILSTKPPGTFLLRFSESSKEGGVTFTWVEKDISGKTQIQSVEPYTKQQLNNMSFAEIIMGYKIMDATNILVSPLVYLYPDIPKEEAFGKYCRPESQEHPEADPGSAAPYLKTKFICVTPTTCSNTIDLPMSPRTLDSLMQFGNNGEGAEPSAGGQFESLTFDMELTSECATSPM

[5] = Selectivity index, ratio of IC50 for human L02 cells to IC50 for human HepG2 cells; type: toxicity; conditions: L02 cells versus HepG2 cells, read-out: Ratio IC50
[6] = target: Mitogen-activated protein kinase; ERK1/ERK2 (Homo sapiens) (UniProt P27361+P28482); assay: Inhibition of ERK 1/2 in human MDA-MB-231 cells assessed as reduction in ERK 1/2 phosphorylation at 4 uM incubated for 24 hrs by Western blot analysis; type: cell-based
Sequence of Mitogen-activated protein kinase; ERK1/ERK2 (Homo sapiens) (P27361 whole entry, looked up): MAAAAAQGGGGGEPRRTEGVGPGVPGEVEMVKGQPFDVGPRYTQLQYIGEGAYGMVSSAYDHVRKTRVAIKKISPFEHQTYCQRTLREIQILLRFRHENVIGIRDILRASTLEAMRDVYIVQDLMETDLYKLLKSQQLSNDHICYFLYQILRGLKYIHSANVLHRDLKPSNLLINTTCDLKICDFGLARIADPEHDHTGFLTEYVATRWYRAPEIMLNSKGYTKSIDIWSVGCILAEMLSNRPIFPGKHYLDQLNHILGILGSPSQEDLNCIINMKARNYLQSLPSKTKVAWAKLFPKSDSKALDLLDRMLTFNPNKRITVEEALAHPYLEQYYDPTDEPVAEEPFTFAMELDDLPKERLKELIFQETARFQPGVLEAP
Sequence of Mitogen-activated protein kinase; ERK1/ERK2 (Homo sapiens) (P28482 whole entry, looked up): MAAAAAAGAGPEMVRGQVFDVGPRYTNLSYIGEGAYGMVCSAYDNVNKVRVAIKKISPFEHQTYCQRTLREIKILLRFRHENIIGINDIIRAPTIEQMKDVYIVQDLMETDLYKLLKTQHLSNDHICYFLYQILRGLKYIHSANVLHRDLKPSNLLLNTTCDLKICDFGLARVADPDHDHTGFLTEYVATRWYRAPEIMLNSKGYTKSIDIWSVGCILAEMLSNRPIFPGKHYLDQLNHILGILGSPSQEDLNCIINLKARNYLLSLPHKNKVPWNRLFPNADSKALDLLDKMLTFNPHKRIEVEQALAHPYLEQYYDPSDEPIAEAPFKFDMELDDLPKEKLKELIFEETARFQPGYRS

[7] = target: Proto-oncogene tyrosine-protein kinase Src (Homo sapiens) (UniProt P12931); assay: Inhibition of Src in human MDA-MB-231 cells assessed as reduction in Src phosphorylation at 4 uM incubated for 24 hrs by Western blot analysis; type: cell-based
Sequence of Proto-oncogene tyrosine-protein kinase Src (Homo sapiens) (P12931 2-536 limits assumed): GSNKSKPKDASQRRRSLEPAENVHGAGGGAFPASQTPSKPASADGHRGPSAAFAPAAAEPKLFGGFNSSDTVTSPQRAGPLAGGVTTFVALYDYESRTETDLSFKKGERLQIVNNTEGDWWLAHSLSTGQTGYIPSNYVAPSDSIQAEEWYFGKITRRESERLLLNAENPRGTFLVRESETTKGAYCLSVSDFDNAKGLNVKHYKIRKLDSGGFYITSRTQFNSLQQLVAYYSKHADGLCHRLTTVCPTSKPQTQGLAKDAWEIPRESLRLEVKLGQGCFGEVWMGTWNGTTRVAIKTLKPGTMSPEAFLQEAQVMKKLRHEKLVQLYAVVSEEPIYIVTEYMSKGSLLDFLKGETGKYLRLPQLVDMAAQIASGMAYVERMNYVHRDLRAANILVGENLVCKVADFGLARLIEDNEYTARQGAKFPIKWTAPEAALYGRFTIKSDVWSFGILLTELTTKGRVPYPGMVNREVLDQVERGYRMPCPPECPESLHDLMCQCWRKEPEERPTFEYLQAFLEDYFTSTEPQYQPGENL

MDA-MB-231 [8] = assay: Antiproliferative activity against human MDA-MB-231 cells assessed as reduction in cell viability incubated for 48 hrs by MTT assay; type: functional, cell-based; conditions: MDA-MB-231, 48 h
L02 = assay: Cytotoxicity against human LO2 cells assessed as reduction in cell viability incubated for 48 hrs by MTT assay; type: cell-based; conditions: L02, 48 h
HepG2 = assay: Antiproliferative activity against human HepG2 cells assessed as reduction in cell viability incubated for 48 hrs by MTT assay; type: functional, cell-based; conditions: HepG2, 48 h
MCF7 = assay: Antiproliferative activity against human MCF7 cells assessed as reduction in cell viability incubated for 48 hrs by MTT assay; type: functional, cell-based; conditions: MCF7, 48 h
[9] = target: Signal transducer and activator of transcription 3 (Homo sapiens) (UniProt P40763); assay: Inhibition of STAT3 in human MDA-MB-231 cells assessed as decrease in STAT3-DNA binding at 4 uM incubated for 24 hrs by electrophoretic mobility shift assay; type: cell-based
MCF-10A = assay: Cytotoxicity against human MCF10A cells assessed as reduction in cell viability incubated for 48 hrs by MTT assay; type: cell-based
MDA-MB-231 [10] = assay: Induction of apoptosis in human MDA-MB-231 cells assessed as increase in cleaved caspase-9 levels at 4 uM incubated for 24 hrs by Western blot analysis; type: functional, cell-based
[11] = target: Tyrosine-protein kinase JAK2 (Homo sapiens) (UniProt O60674); assay: Inhibition of JAK2 in human MDA-MB-231 cells assessed as reduction in JAK2 phosphorylation at 4 uM incubated for 24 hrs by Western blot analysis; type: cell-based
Sequence of Tyrosine-protein kinase JAK2 (Homo sapiens) (O60674 whole entry): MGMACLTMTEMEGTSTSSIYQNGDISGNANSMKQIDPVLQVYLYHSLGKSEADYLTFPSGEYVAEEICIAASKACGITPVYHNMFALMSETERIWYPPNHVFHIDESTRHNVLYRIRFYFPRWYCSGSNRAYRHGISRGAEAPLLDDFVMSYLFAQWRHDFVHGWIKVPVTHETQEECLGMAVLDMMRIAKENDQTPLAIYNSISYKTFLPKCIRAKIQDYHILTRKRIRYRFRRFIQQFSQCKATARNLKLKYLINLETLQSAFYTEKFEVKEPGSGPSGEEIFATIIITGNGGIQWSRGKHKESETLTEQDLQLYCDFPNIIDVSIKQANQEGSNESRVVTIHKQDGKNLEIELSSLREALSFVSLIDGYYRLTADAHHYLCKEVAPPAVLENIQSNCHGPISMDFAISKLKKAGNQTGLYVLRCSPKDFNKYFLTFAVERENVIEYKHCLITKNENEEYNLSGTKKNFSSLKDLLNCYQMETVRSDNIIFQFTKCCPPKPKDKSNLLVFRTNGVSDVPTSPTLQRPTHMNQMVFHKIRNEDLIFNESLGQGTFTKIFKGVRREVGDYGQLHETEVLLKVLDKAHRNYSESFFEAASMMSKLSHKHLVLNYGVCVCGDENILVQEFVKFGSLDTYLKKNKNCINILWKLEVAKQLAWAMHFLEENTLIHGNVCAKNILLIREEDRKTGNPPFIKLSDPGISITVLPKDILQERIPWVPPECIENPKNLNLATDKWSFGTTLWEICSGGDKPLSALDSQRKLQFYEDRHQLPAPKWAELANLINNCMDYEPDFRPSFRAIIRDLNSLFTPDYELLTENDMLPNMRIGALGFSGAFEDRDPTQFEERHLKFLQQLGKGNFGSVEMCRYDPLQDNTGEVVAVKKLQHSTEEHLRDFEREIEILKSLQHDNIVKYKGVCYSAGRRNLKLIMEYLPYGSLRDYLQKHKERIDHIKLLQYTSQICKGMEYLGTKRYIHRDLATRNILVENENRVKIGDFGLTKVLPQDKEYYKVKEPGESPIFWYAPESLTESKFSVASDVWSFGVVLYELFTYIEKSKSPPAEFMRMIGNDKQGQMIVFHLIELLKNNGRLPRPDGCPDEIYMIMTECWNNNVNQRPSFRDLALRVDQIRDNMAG

MDA-MB-231 [12] = assay: Induction of apoptosis in human MDA-MB-231 cells assessed as increase in cleaved caspase-3 levels at 4 uM incubated for 24 hrs by Western blot analysis; type: functional, cell-based

IC50 (HCT-116) [µM]	IC50 (MDA-MB-231 [8]) [µM]	IC50 (HepG2) [µM]	IC50 (MCF7) [µM]	Structure (SMILES)	also measured
4.26	3.2	4.9	6.35	CCN(CC)c1ccc2cc(C(=O)N3CCN(C(=O)C4=Cc5ccc(F)cc5S4(=O)=O)CC3)c(=O)oc2c1	
4.44	2.03	5.29	5.23	CCN(CC)c1ccc2cc(C(=O)N3CCN(C(=O)C4=Cc5ccc(Cl)cc5S4(=O)=O)CC3)c(=O)oc2c1	
3.24	3.46	4.91	4.41	CCN(CC)c1ccc2cc(C(=O)N3CCN(C(=O)C4=Cc5c([N+](=O)[O-])cccc5S4(=O)=O)CC3)c(=O)oc2c1	
3.83	2.23	5.15	3.9	CCN(CC)c1ccc2cc(C(=O)N3CCN(C(=O)C4=Cc5cc(Br)ccc5S4(=O)=O)CC3)c(=O)oc2c1	
2.3	1.92	4.21	2.28	CCN(CC)c1ccc2cc(C(=O)N3CCN(C(=O)C4=Cc5ccc(OC)cc5S4(=O)=O)CC3)c(=O)oc2c1	
2.79	2.74	5.52	5.04	CCN(CC)c1ccc2cc(C(=O)N3CCN(C(=O)C4=Cc5ccc(Br)cc5S4(=O)=O)CC3)c(=O)oc2c1	
6.74	4.92	7.47	6.33	CCN(CC)c1ccc2cc(C(=O)N3CCN(C(=O)C4=Cc5cc([N+](=O)[O-])ccc5S4(=O)=O)CC3)c(=O)oc2c1	
4.95	5.22	7.09	6.76	CCN(CC)c1ccc2cc(C(=O)N3CCN(C(=O)C4=Cc5ccc([N+](=O)[O-])cc5S4(=O)=O)CC3)c(=O)oc2c1	

More lines, now with the values behind:

Structure (SMILES)	IC50 (HCT-116) [µM]	IC50 (MDA-MB-231 [8]) [µM]	IC50 (HepG2) [µM]	IC50 (MCF7) [µM]	also measured
O=[N+]([O-])c1ccc2c(c1)S(=O)(=O)C=C2	2.16	1.81	3.52	3.71	inhibition [1]: inactive; selectivity ratio [2]: 3.4; Activity (MDA-MB-231 [3]): Active; inhibition [4]: Active; selectivity ratio [5]: 1.5; inhibition [6]: inactive; inhibition [7]: inactive; IC50 (L02): 5.2 µM; inhibition [9]: Active; IC50 (MCF-10A): 6.11 µM; Activity (MDA-MB-231 [10]): Active; inhibition [11]: inactive; Activity (MDA-MB-231 [12]): Active
CCN(CC)c1ccc2cc(C(=O)N3CCN(C(=O)C4=Cc5cc(Cl)ccc5S4(=O)=O)CC3)c(=O)oc2c1	4.12	2.35	5.55	4.39	
CCN(CC)c1ccc2cc(C(=O)N3CCN(C(=O)C4=Cc5c(Cl)cccc5S4(=O)=O)CC3)c(=O)oc2c1	1.57	2.24	4.49	4.44	
CCN(CC)c1ccc2cc(C(=O)N3CCN(C(=O)C4=Cc5cccc(Br)c5S4(=O)=O)CC3)c(=O)oc2c1	2.97	2.32	4.74	3.2	
O=S1(=O)C=Cc2ccccc21	9.33	27.7	22.9	15.2	
CCN(CC)c1ccc2cc(C(=O)N3CCN(C(=O)C4=Cc5ccccc5S4(=O)=O)CC3)c(=O)oc2c1	3.78	2.32	4.31	3	
CCN(CC)c1ccc2cc(C(=O)N3CCN(C(=O)C4=Cc5c(F)cccc5S4(=O)=O)CC3)c(=O)oc2c1	2.33	2.13	3.3	4.04	
CCN(CC)c1ccc2cc(C(=O)N3CCN(C(=O)C4=Cc5c(OC)cccc5S4(=O)=O)CC3)c(=O)oc2c1	2.02	1.84	2.94	3.95	

Source: ChEMBL document CHEMBL4393689, “Discovery of fluorescent coumarin-benzo[b]thiophene 1, 1-dioxide conjugates as mitochondria-targeting antitumor STAT3 inhibitors” (Eur J Med Chem, 2019)
